In paper PMC3334291 (Biochemistry, 2012):

Tests used:
[1] = target: MelBSt (melibiose permease of Salmonella typhimurium) (Salmonella enterica, UniProt P30878, L5M); details: read-out: WT; 20 mM NaCl, 10 μM D2G, 100 mM KPi pH 7.5; sugar site, competitive
[2] = target: MelBSt (melibiose permease of Salmonella typhimurium) (Salmonella enterica, UniProt P30878, L5M/G117A); details: read-out: G117A; 20 mM NaCl, 10 μM D2G, 100 mM KPi pH 7.5; sugar site, competitive

Compound `OC[C@H]1O[C@H](OC[C@H]2OC(O)[C@H](O)[C@@H](O)[C@@H]2O)[C@H](O)[C@@H](O)[C@H]1O` (some centres unmarked) [melibiose] has an IC50 [1] of 3.8 mM and an IC50 [2] of 8.1 mM.
